Results taken from patent publication US4404230A, “4-Hydroxy-1,2-Benzisothiazol-3(2H)-one-1,1-dioxides and salts thereof” (priority 1980, dated 1983).

Assays:
[1] = system: taste testers; assay: Determination of the taste quality; assay type: in vivo
Description: The tests were performed in analogy to the method of DuBois, G. A. Crosby, R. A. Stephanson and R. E. Wingard Jr., J. Agric. […] The test compounds were used as aqueous solutions at a concentration which corresponds to an about 5% saccharose solution. As comparison compound saccharose was used. The tests were carried out under identical conditions. Only the characterization of the taste was evaluated, because the intensity was already determined in the preceding experiments. The following criteria were determined by each tester: Percentage sweet to percentage bitter to percentage another taste quality. Furthermore, the presence or absence of an after taste of the individual test compounds was determined. Each substance was tested twice with regard to five different determinations.

[2] = system: taste testers; assay: Determination of the threshold concentration (sweet taste); assay type: in vivo
Description: Aqueous solutions having concentrations of 1:12,500, 1:25,000, 1:50,000, and 1:100,000 were prepared of test compounds A, B and C and of comparison compounds X, Y and Z, and each was evaluated at 5 taste testers according to the following scoring system: Very sweet (=3 points), medium sweet (=2 points), weakly sweet (=1 point), and not sweet (=0 point). The tests were carried out as described by H. G. Schutz and F. J. Pilgrim in Food Research 22, 206 (1957). The dilution perceptible as sweet was defined as having the concentration at which the average value of the evaluation points reached 1.0 or more.

[3] = system: taste testers; assay: Determination of the relative sweetening power in comparison to saccharose; assay type: in vivo; settings: compared with 3% aqueous solution of saccharose
Text: The relative sweetening power (often also defined as degree of sweetness) of sweetening agents in comparison with saccharose (cane sugar) varies considerably with concentration. […] Therefore, for the determination of the relative sweetening power of the test compounds a 3% aqueous solution of saccharose was always used for comparison.

[4] = prior knowledge; cited from earlier work
[5] = system: taste testers; settings: prior knowledge; cited from earlier work
[6] = system: taste testers; settings: prior knowledge; cited from earlier work; remark: listed apart in the source
[7] = Batzinger et al., Science 198, 944 (1977); cited from earlier work
[8] = system: thrombocyte aggregation; assay: Effect on thrombocyte aggregation induced by collagen; assay type: cell-based; settings: read-out: Change in % max. aggregation rate
Description: The thrombocyte aggregation was measured according to Born and Cross [J. Physiol. 170, 397 (1964)] in platelet-rich plasma obtained by centrifuging citrate blood. The change in the maximum aggregation rate in % compared with a control, and the percent change in the "optical density" were the measured parameters. The aggregation was induced by collagen.

| SMILES | After taste ([1]; 1:20, 10 determinations) | Percentage bitter ([1]; 1:20, 10 determinations) [%] | Percentage other taste ([1]; 1:20, 10 determinations) [%] | Percentage sweet ([1]; 1:20, 10 determinations) [%] | Average value of evaluation points ([2]; concentration 1:25000) [points] | Average value of evaluation points ([2]; concentration 1:50000) [points] | Average value of evaluation points ([2]; concentration 1:100000) [points] | purity of the taste [1] | After taste ([1]; 1:10000, 10 determinations) | Percentage bitter ([1]; 1:10000, 10 determinations) [%] | Percentage other taste ([1]; 1:10000, 10 determinations) [%] | Percentage sweet ([1]; 1:10000, 10 determinations) [%] | Relative sweetening power (Saccharose = 1) [3] | toxicological tests at higher dosages [4] | Average value of evaluation points ([2]; concentration 1:12500) [points] | sweetening power compared with saccharose (in words) [5] | taste profile compared with saccharose [1] | after taste and concurrent taste [6] | mutagenic effect [7] | change in maximum aggregation rate vs control at 100 µM [8] [%] |
| --- | --- | --- | --- | --- | --- | --- | --- | --- | --- | --- | --- | --- | --- | --- | --- | --- | --- | --- | --- | --- |
| OC[C@H]1O[C@@](CO)(O[C@H]2O[C@H](CO)[C@@H](O)[C@H](O)[C@H]2O)[C@@H](O)[C@@H]1O [Saccharose, saccharose, reference compound] | 4 | 0 | 2 | 98 | – | – | – | – | – | – | – | – | – | – | – | – | – | – | – | – |
| O=C1NS(=O)(=O)c2cccc(O)c21 [Substance A, 4-hydroxy-1,2-benzisothiazol-3(2H)-one-1,1-dioxide] | – | – | – | – | 2.4 | 1.0 | 0.2 | 94-96% | 3 | 2 | 4 | 94 | 210 | – | – | – | – | – | – | – |
| O=C1NS(=O)(=O)c2cc(O)cc(O)c21 [Substance C, 4,6-Dihydroxy-1,2-benzoisothiazol-3(2H)-one-1,1-dioxide] | – | – | – | – | 1.8 | 1.0 | 0.0 | 86% | 8 | 3 | 11 | 86 | 180 | – | – | – | – | – | – | – |
| O=S(=O)(O)NC1CCCCC1 [X, cyclamate, reference compound] | – | – | – | – | 0.2 | 0.0 | – | – | – | – | – | – | 45 | not without objection | 0.6 | much better than that of the saccharose | – | – | – | – |
| O=C1NS(=O)(=O)c2ccccc21 [Y, saccharine, reference compound] | – | – | – | – | 2.4 | 1.2 | 0.4 | – | 80 | 21 | 7 | 72 | – | – | – | much better than that of the saccharose | not even approached | metallic, bitter after taste and the bitter concurrent taste | shows a mutagenic effect | – |
| O=C1NS(=O)(=O)c2cc(O)ccc21 [Z, 6-hydroxy-1,2-benzisothiazol-3(2H)-one-1,1-dioxide, reference compound] | – | – | – | – | 1.4 | 0.6 | 0.0 | – | 29 | 7 | 12 | 81 | 140 | – | – | – | not even approached | – | – | – |
| O=C1NS(=O)(=O)c2cccc(O)c21.[Na] [sodium salt] | – | – | – | – | – | – | – | – | – | – | – | – | – | – | – | – | – | – | – | 0 |
